The source of these data is patent US20240132458A1, “NLRP3 INFLAMMASOME SMALL-MOLECULE INHIBITOR FOR TREATMENT OF ALZHEIMER'S DISEASE” (AJOU UNIVERSITY INDUSTRY-ACADEMIC COOPERATION FOUNDATION, priority 2021, published 2024).

“Also recorded” adds a separate entry of the source.

The subject of one data set is NLRP3, NLRC4. The conditions noted are these: approximate inhibitory concentration, literature; cited from earlier work.
Data set [1] relates to NLRP3. The note with it: approximate inhibitory concentration, literature; cited from earlier work.
Data set [2] has as its target T1, NLRP3 (Homo sapiens, UniProt Q96P20).
T1 construct: THP-1 cells (10^5/well) were differentiated with PMA (80 nM, 48 hours) in a 96-well plate; endogenous in cells; host or cells: PMA-differentiated, LPS-primed THP-1 cells
Kind of data set: Inhibition of NLRP3 by IL-1β secretion level (ELISA). Type of data set: cell-based. The note with it: PMA-differentiated THP-1, LPS (10 ng/mL) 4 hours, compound 1 hour, nigericin (10 μM) 1 hour. As to the method: THP-1 cells (10^5/well) were differentiated with PMA (80 nM, 48 hours) in a 96-well plate (BD Biosciences). The differentiated macrophages were primed with LPS (10 ng/mL) for 4 hours. Thereafter, the cells were treated with each compound for 1 hour in a serum-free medium, followed by activation of NLRP3 by nigericin for an additional 1 hour. The supernatant was collected and the inhibition of human IL-1β secretion was analyzed using the Human IL-1β Uncoated ELISA Kit (Thermo Fisher Scientific, Inc.). A microplate spectrophotometer system (Molecular Devices) was employed to read absorbance in the plate.

Data set [3] deals with NLRP3 signaling pathway (IL-1β, caspase 1). Nature of the data set: Western blot of the NLRP3 signaling pathway. Type of data set: cell-based, human. The note with it: 10 μM, PMA-differentiated THP-1, LPS/nigericin. Here is the method: Cytoplasmic proteins were extracted using NE-PERTM Nuclear and Cytoplasmic Extraction Reagent (Thermo Fisher Scientific, Inc.), and the total-protein was measured using a Bicinchoninic (BCA) assay kit (Sigma-Aldrich Co.). The proteins were separated by SDS-PAGE and transferred to a membrane using a Mini-PROTEAN Tetra Cell and Mini Trans-Blot Electrophoretic Transfer Cell System (Bio-Rad Laboratories, Hercules, CA, USA). The membranes were blocked with skim milk (5%) for 1 hour, and immunoblotted with antibodies against NLRP3, IL-1β, mature IL-1β (Cell Signaling Technology Inc., Danvers, MA, USA), caspase 1 and β-actin (Santa Cruz Biotechnology Inc., Dallas, TX, USA) at 4° C. overnight. After washing with PBS supplemented with 0.1% of Tween 20, the membranes were treated with a peroxidase-conjugated anti-rabbit or anti-mouse IgG antibody (1:1,000) for 2 hours at room temperature. The SuperSignal West Pico ECL solution (Thermo Fisher Scientific, Inc.) was used to detect protein bands that were visualized on a ChemiDocm Touch Imaging System (Bio-Rad Laboratories).
On the technique in general: A western blot detects proteins with antibodies after separation by electrophoresis.

Another data set can be described thus: Microsomal stability. Type of data set: in vitro ADME, human. As to the method: Stock solutions of NIC7 and NIC7w were prepared at a concentration of 10 mM in DMSO, and were diluted to a concentration of 100 μM with 100% methanol as a working solution. These NIC7 and NIC7w solutions were diluted to a concentration of 1 μM with potassium phosphate buffer (pH 7.4), and then each solution was incubated with 0.5 mg/mL liver microsomes (human) at 37° C. for 5 minutes. The reaction was initiated by adding a NADPH-generating system (3.3 mM glucose-6-phosphate (G6P), 1.3 mM β-NADP^+, 3.3 mM MgCl2, and 0.4 U/mL glucose-6-phosphate dehydrogenase (G6PD)) at 37° C. The reaction was stopped at 0 and 30 minutes using cold acetonitrile containing carbamazepine as an internal standard at 20 ng/mL. After vortexing and centrifugation, the supernatant was analyzed with liquid chromatography with tandem mass spectrometry (LC-MS/MS). All microsomal assays were performed in duplicate.
After sample preparation, 0.1 mL acetonitrile containing 20 ng/mL internal standard was added to a 50 μL aliquot of each biological sample. After vortexing and centrifugation at 12,000 rpm for 10 minutes, 10 μL of the supernatant was analyzed with LC-MS/MS.
In the LC system, a reversed-phase C18 column (BEH C18, 2.1 mm×100 mm i.d., 1.7 μm; Waters, Ireland) was maintained at 4° C. The composition of the mobile phase was changed from 80% of 0.1% formic acid in water to 80% of 0.1% formic acid in acetonitrile for 3 minutes, and then switched to 80% of 0.1% formic acid in water for 3.1 minutes, and maintained at 0.5 at mL/min for 5 minutes. The analytes were monitored on an API5500 triple quadrupole mass spectrometer MS (AB Sciex, Foster City, CA) equipped with a turbo ion spray interface for electrospray ionization and operated in positive ion mode at 5.5 kV and 500° C. at 50 L/min of atomizing gas flow, 50 L/min of turbo ion-spray gas flow, 20 L/min of curtain gas flow, 5.5 kV of ring voltage and 5 Torr of collision gas (nitrogen) pressure. The mass transitions for NIC7, NIC7w and the internal standard were m/z 481.1→165.0 (collision energy, 45 eV), 453.1→165.0 (41.0 eV) and 236.9→194.0 (29 eV), respectively, in the multiple reaction monitoring mode.

In the next data set the target is T2, CYP1A2 (Homo sapiens, UniProt P05177).
T2 construct: pooled human liver microsomes were assayed at 0.25 mg/mL concentration; from tissue; host or cells: pooled human liver microsomes
T2 sequence (P05177 1-516): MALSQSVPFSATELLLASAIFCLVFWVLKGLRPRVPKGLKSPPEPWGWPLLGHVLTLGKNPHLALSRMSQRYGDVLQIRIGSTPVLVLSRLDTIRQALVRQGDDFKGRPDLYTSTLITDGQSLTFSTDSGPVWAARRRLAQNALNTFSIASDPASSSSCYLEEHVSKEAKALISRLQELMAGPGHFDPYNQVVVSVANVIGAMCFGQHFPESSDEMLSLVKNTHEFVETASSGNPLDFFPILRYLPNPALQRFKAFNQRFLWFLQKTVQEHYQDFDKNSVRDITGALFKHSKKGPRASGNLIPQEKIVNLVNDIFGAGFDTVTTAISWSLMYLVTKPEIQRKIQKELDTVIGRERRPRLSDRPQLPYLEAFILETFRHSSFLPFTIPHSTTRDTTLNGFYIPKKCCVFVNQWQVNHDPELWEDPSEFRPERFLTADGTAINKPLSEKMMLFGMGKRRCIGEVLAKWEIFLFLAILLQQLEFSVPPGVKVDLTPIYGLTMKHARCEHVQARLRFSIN
Nature of the data set: Cytochrome P450 inhibition. The note with it: probe phenacetin (O-deethylation), pooled human liver microsomes 0.25 mg/mL, read-out: CYP inhibition (% at 10 μM) 1A2. The format is in vitro ADME. Here is the method: (§1) The inhibitory effects of NIC7 and NIC7w on the metabolism of the five major P450 probe substrates were evaluated using a previously reported method (S. Seino, Diabetologia 55, 2096-2108 (2012)) with minor modifications. A cocktail of substrates (phenacetin O-deethylase, tolbutamide 4-hydroxylase, mephenytoin 4-hydroxylase, dextromethorphan O-demethylase, and midazolam 1′-hydroxylase) was used for five major P450 enzymes, CYP1A2, CYP2C9, CYP2C19, CYP2D6, and CYP3A4, respectively. NIC7 and NIC7w were prepared at a concentration of 10 mM in DMSO and dissolved in methanol at a concentration of 1 mM. In all experiments, the final concentration of an organic solvent (methanol) for cocktail incubation was set at 1.0% (v/v). Both NIC7 and NIC7w were used at 10 μM, and pooled human liver microsomes were assayed at 0.25 mg/mL concentration. The substrate cocktail solution was incubated with the microsomes for 5 min at 37° C. The reaction was initiated by adding an NADPH-generating system (the same as described in Examples 1-5) at 37° C. and 1300 rpm. The reaction was stopped at 10 min by the addition of cold acetonitrile containing carbamazepine as an internal standard at 20 ng/mL. After vortexing and centrifugation, the supernatant was analyzed with LC-MS/MS. All microsomal incubations were performed in triplicate.
For orientation: Liver microsomes are a subcellular fraction often used to study metabolism.

The next data set has as its target T3, CYP2C19 (Homo sapiens, UniProt P33261).
T3 construct: pooled human liver microsomes were assayed at 0.25 mg/mL concentration; from tissue; host or cells: pooled human liver microsomes
Kind of data set: Cytochrome P450 inhibition. The format is in vitro ADME. The note with it: probe mephenytoin (4-hydroxylation), pooled human liver microsomes 0.25 mg/mL, read-out: CYP inhibition (% at 10 μM) 2C19. As to the method: as §1

Another data set has as its target T4, CYP2C9 (Homo sapiens, UniProt P11712).
T4 construct: pooled human liver microsomes were assayed at 0.25 mg/mL concentration; from tissue; host or cells: pooled human liver microsomes
Kind of data set: Cytochrome P450 inhibition. The format is in vitro ADME. Here is the method: as §1

In the next data set the target is T5, CYP2D6 (Homo sapiens, UniProt P10635).
T5 construct: pooled human liver microsomes were assayed at 0.25 mg/mL concentration; from tissue; host or cells: pooled human liver microsomes
T5 sequence (P10635 whole entry): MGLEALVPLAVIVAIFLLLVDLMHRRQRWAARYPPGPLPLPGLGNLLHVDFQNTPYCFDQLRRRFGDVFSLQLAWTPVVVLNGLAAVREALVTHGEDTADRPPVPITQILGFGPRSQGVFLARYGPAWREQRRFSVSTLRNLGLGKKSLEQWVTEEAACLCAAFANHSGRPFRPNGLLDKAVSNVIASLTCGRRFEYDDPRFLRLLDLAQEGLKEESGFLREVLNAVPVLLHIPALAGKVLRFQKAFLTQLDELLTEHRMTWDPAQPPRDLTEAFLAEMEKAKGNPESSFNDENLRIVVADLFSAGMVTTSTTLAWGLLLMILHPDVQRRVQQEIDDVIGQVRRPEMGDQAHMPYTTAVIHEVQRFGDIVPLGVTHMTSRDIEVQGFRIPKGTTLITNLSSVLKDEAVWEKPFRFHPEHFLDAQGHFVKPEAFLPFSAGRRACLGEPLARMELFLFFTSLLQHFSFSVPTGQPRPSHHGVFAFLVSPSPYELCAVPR
Nature of the data set: Cytochrome P450 inhibition. Type of data set: in vitro ADME. The note with it: probe dextromethorphan (O-demethylation), pooled human liver microsomes 0.25 mg/mL, read-out: CYP inhibition (% at 10 μM) 2D6. Here is the method:
as §1

In another data set the target is T6, CYP3A4 (Homo sapiens, UniProt P08684).
T6 construct: pooled human liver microsomes were assayed at 0.25 mg/mL concentration; from tissue; host or cells: pooled human liver microsomes
T6 sequence (P08684 whole entry): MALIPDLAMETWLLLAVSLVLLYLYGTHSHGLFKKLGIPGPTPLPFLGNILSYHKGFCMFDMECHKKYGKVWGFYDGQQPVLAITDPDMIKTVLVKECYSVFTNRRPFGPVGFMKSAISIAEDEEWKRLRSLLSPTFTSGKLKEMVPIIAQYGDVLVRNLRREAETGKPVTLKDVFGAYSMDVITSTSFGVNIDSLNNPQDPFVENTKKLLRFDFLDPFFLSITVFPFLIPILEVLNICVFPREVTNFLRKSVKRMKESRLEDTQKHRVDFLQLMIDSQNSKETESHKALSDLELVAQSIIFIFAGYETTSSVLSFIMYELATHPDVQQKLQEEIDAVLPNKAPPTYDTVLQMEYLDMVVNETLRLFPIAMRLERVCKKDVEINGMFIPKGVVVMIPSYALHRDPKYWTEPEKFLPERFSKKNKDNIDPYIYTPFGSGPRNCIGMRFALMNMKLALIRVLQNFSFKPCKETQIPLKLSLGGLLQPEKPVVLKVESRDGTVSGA
Kind of data set: Cytochrome P450 inhibition. Type of data set: in vitro ADME. The note with it: probe midazolam (1′-hydroxylation), pooled human liver microsomes 0.25 mg/mL, read-out: CYP inhibition (% at 10 μM) 3A4. Here is the method: as §1

In data set [4] the test system is AD model mice (Aβ1-42 injected). Nature of the data set: Y-maze test in AD model (spatial working memory). Type of data set: in vivo, C57BL/6 mice. The conditions noted are these: donepezil 1 mg/kg intraperitoneally, 3 days/week; vs vehicle-treated and untreated mice. Here is the method:
(§2) 6-week-old male C57BL/6 mice (19 to 22 g) were used, and 5 mice per cage were bred in a feedlot. To create an AD model, experimental animals were administered isoflurane by inhalation, and then injected with Aβ1-42 (5 μL) using a Hamilton microsyringe with a 26-gauge needle. The AD model mice were trained for 20 minutes/mouse for 2 days before the experimental procedure, and then subjected to Y-maze tests and novel object recognition tests (for cognitive evaluation). Behavioral evaluation was performed 7 days after Aβ1-42 injection. The animals were subdivided into AD, NIC7-treated, vehicle (DMSO)-treated, donepezil-treated (positive control) and normal (no-disease) groups. Cognitive evaluation was performed on days 7, 14, 21 and 28 after injection.
The alteration in spatial cognitive behavior was assessed using a Y-maze apparatus with three horizontal identical arms (35 cm long×15 cm high×5 cm wide) symmetrically arranged at 120° to each other. The evaluation was performed in the Y-maze test 7 days after Aβ injection. After introduction into the Y-maze, each animal was allowed to move freely for 2 minutes and then measured for 5 minutes. The test subjects tended to enter an arm different from the arm they had previously visited. The number of arm entries and triads was recorded to calculate the percentage of alternation. […]

The test system is the same in data set [5]. Nature of the data set: Novel object recognition test in AD model. Type of data set: in vivo, C57BL/6 mice. The note with it: donepezil 1 mg/kg intraperitoneally; vs vehicle-treated or untreated mice. As to the method: as §2
A novel object recognition test was performed in an open field box containing two identical objects. Animals were first familiarized with these identical objects for 2 minutes, and then one of the objects was replaced with a novel object, followed by reading for 5 minutes. The time spent with an identical object (tA) and the time spent with a novel object (tB) were calculated, and the recognition index ratio was calculated via the formula (tB/(tA+tB))×100.

T1 sequence (Q96P20 whole entry): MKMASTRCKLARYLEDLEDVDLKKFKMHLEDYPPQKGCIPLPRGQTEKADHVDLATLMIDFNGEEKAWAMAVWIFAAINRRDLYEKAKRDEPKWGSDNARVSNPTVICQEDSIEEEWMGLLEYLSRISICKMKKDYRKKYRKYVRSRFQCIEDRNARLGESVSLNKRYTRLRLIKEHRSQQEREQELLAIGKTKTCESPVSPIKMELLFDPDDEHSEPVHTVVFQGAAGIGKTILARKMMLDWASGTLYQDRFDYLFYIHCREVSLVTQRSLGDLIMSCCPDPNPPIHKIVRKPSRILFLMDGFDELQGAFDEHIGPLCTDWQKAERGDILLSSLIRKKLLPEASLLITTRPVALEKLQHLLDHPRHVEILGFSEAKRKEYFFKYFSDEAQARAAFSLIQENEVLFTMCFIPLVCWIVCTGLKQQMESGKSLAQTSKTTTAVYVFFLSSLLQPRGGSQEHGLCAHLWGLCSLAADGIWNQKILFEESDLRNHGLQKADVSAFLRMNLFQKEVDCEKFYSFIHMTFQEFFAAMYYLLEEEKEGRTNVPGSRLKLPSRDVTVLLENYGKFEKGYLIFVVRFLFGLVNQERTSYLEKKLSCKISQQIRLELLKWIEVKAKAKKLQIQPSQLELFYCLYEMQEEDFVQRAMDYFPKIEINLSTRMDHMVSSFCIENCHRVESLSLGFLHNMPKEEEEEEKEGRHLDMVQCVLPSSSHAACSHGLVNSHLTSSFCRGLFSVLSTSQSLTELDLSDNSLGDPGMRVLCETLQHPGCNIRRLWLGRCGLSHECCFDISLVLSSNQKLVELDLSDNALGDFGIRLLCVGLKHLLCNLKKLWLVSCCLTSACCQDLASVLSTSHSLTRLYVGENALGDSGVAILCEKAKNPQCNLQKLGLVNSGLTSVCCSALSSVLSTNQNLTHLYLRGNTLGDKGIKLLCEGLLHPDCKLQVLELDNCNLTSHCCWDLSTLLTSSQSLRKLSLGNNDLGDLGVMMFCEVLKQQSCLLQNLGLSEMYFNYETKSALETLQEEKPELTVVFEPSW
T4 sequence (P11712 whole entry): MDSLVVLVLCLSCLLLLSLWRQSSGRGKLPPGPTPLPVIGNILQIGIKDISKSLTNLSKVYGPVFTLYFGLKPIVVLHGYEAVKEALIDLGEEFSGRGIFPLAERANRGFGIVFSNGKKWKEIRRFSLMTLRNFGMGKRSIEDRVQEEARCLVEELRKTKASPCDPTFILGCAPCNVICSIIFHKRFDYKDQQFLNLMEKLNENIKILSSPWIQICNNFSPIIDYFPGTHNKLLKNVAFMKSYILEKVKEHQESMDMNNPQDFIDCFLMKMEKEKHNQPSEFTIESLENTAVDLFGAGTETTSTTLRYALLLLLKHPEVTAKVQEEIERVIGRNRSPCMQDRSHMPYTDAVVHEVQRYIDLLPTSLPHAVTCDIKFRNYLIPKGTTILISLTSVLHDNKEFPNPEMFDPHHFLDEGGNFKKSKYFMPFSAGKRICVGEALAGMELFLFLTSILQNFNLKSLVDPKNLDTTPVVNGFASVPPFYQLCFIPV
T3 sequence (P33261 whole entry): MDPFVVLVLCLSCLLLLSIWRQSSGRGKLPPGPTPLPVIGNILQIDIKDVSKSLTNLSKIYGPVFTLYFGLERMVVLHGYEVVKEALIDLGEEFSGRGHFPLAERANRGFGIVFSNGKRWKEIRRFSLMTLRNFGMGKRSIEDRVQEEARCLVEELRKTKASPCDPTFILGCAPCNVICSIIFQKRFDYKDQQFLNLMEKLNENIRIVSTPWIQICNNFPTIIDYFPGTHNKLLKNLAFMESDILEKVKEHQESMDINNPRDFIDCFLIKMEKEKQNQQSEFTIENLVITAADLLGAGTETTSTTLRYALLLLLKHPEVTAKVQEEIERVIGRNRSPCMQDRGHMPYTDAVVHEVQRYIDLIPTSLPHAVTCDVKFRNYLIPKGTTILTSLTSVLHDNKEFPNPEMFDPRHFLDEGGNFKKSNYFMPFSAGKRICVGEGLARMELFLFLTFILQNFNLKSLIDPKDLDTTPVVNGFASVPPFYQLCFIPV

Take `CC1CC(=O)c2s/c(=N\C3CCCCC3)oc2C1` (stereo not shown) [BOT-4-one]: the IC50 in the data set on NLRP3, NLRC4 is 590 to 1280 nM.
With `Cc1ccc(S(=O)(=O)/C=C/C#N)cc1` [Bay 11-7082], the IC50 in the data set with NLRP3, NLRC4 is about 5000 nM.
As to `O=C(O)c1ccc(/C=C2/SC(=S)N(Cc3cccc(C(F)(F)F)c3)C2=O)cc1` [CY-09], the IC50 in the data set on NLRP3 [1] was about 5000 nM.
On to `O=[N+]([O-])/C=C/c1ccc2c(c1)OCO2` [MNS], for which, in the data set on NLRP3 [1], the IC50 was about 2000 nM.
Turning to `Cc1ccc(S(=O)(=O)Nc2nc3cc(NC(=O)NCc4ccccc4)ccc3s2)cc1` [NIC7w, N-(5-(3-benzylureido)benzo[d]thiazol-2-yl)-4-methylbenzenesulfonamide], the “inhibition of IL-1β secretion caused by NLRP3” value against NLRP3 [2] was “most potent inhibition; also recorded: in a dose-dependent manner, more strongly and significantly than NIC7”. Further, in data set [3], the “inhibition of IL-1β and caspase 1 (Western blot)” value is “inhibition”. In addition, in “Microsomal stability”, the “metabolic stability versus positive control compound” value was “better half-life and stability than a positive control compound”. Moreover, in the data set “Microsomal stability” (Human liver microsomes 0.5 mg/mL, 1 μM compound, 37° C.), the “Microsomal stability (% at 30 min)” value is “Human: 49.5%”. For the same compound, the “increase of amount of drug remaining after 30 minutes of metabolism compared to NIC7” value in the data set “Microsomal stability” (human liver microsomes) is 29.8%. The inhibition at 10 min, 10 µM on CYP1A2 is under 1%; at CYP2C19, 15.4%; at CYP2C9 (probe tolbutamide (4-hydroxylation), pooled human liver microsomes 0.25 mg/mL, tolbutamide, read-out: CYP inhibition (% at 10 μM) 2C9), 39.4%; at CYP2D6, 9.1%; at CYP3A4 it was under 1%. Also, on CYP2C9 (five P450 enzymes, 10 μM), the “CYP enzyme selectivity of inhibition” value is “acted mainly on CYP2C9 enzyme and hardly acted on other types of CYP enzymes”.
On to `CS(=O)(=O)CCC#N` [OLT1177], for which the IC50 with NLRP3 [1] is about 1000 nM.
Turning to `COc1cc2c(cc1OC)C(=O)C(CC1CCN(Cc3ccccc3)CC1)C2` (stereo not shown) [donepezil, reference compound], in [4], the “Y-maze test, spatial working memory” value is reported as “spent more time in the novel arm”. In data set [5], the “recognition index rate (novel object recognition test)” value is “better”.
In the case of NBC6, the IC50 in the data set on NLRP3 [1] was about 574 nM.

A word on the IC50: it is the concentration needed to halve the response being measured. In general, inhibition refers to the percentage by which the read-out fell short of the control.
